One data set relates to TNF-α production. In words: TNF-α in whole blood ex vivo, peptide added before LPS challenge. The format is cell-based, human. The method, then:
FIG. 12. Effect of pre-challenge addition of synthetic peptides on TNF-a levels induced by E. coli 0111:B4 LPS in whole blood ex vivo. The synthetic peptides BP2, BP2.1 or BP2.2 were added to whole blood containing heparin at 2 I.U/ml at the concentrations indicated and incubated for 10 min at 37° C. TNF-α concentrations were measured after incubation for 4 h at 37° C. subsequent to addition of E. coli 0111:B4 LPS at 1 ng/ml. The values represent the means of triplicate experiments. Controls only contained added LPS.
To determine whether addition of synthetic peptide to whole blood ex vivo prior to endotoxin challenge was effective in endotoxin neutralization assayed in terms of cytokine production, a synthetic peptide of the invention BP2, and the analogues BP2.1 or BP2.2 were added at concentrations of 2.5 to 20 μg/ml to whole blood and incubated for 10 min at 37° C. prior to the addition of 1 ng/ml E. coli 0111:B4 LPS. TNF-α concentrations were determined as previously described. […] The structurally related LPS-binding synthetic peptide analogues BP2.1 and BP2.2 were ineffective in endotoxin neutralization under these conditions.

Data set [1] can be described thus: Tolerability of i.p. peptide in mice. The format is in vivo. The note with it: 2.5 and 5 mg/Kg i.p.; 2 week observation; Swiss mice.
Data set [2] can be described thus: ELISA binding to immobilized endotoxins of increasing complexity, effect of plasma. Further details: species or system Escherichia coli. The protocol: FIG. 4. Effect of endotoxin complexity and plasma concentration on the binding of synthetic peptide BP2 of the invention to immobilized LPS. Coated ELISA microtiter plates containing E.coli D31m4 Lipid A, Re, J5 or 0111:B4 LPS were incubated with synthetic peptide at a concentration of 40 ng/ml in the presence of plasma at dilutions to 10% (v/v). Binding activity was determined by the ELISA microplate lipid A binding assay as previously described.
Double-immunodiffusion of the peptides of the invention against ‘rough’ R-type E. coli D31m4 Re-LPS (List Biological Laboratories Inc., Calif.) or the structurally more complex ‘smooth’ S-type E. coli 0111:B4 LPS (Sigma Chemical Co., Rockford, Ill.) was performed in 0.8% (w/v) agarose containing 50 mM Tris and 0.1% (w/v) Triton X100, pH 7.5. for 16 h at 20° C. PmB and BPI(85-102) were included as control compounds for comparative purposes. The microprecipitates formed were visualized by Coommassie brilliant blue staining. […] Since the amount of precipitate formed is a function of valency, the peptides of the invention appear to be capable of a high degree of intermolecular binding of LPS molecules via the Lipid A moieties. […] The degree of precipitation of endotoxin by the synthetic peptides according to the invention was determined by measurement of the optical density of insoluble complexes formed at 340 nm (FIG. 2). […]

A short description of data set [3]: Endotoxin Inhibition ELISA (EIE), competitive inhibition of Lipid A binding. Further details: species or system Escherichia coli. The note with it: biotinylated BP2; 1 pg/ml E. coli 0111:B4 LPS. The protocol: FIG. 6. Competitive inhibition of binding of synthetic peptide BP2 to immobilized lipid A by endotoxin. Biotinylated BP2 peptide in the indicated concentration range was pre-incubated with E. coli 0111:B4 LPS at 1 pg/ml for 20 min at 23° C. and the residual endotoxin binding activity was determined with the use of a lipid A binding ELISA microplate assay. Individual values are the means of triplicate experiments corrected for non-specific binding.
FIGS. 7A and 7B. Detection of endotoxin in solution with a Lipid A binding assay, the endotoxin inhibition ELISA (EIE) microplate assay. Dose-response of residual LPS binding activity of synthetic peptide BP2 at 8 ng/ml after pre-incubation with E. coli 0111:B4 LPS in the ranges from 0.1 to 1000 pg/ml (Panel A) or from 0.1 to 100 pg/ml (Panel B).
Capture of the TAG labeled J5 LPS by immobilized synthetic peptide was quantitated by electrochemiluminescence detection subsequent to washing steps with phosphate buffer containing 0.1% (w/v) Triton X100 to remove excess unbound LPS. […] This confirms the high capacity of immobilized peptides of the invention for endotoxin in solution. […] LPS with high affinity and are universal lipid A binding ligands. […]

Data set [4] is described as follows: Double-immunodiffusion against 0111:B4 LPS. Type of data set: binding, Escherichia coli. Particulars: 0.8% agarose, 16 h at 20° C.; data not shown. The protocol: Double-immunodiffusion of the peptides of the invention against ‘rough’ R-type E. coli D31m4 Re-LPS (List Biological Laboratories Inc., Calif.) or the structurally more complex ‘smooth’ S-type E. coli 0111:B4 LPS (Sigma Chemical Co., Rockford, Ill.) was performed in 0.8% (w/v) agarose containing 50 mM Tris and 0.1% (w/v) Triton X100, pH 7.5. for 16 h at 20° C. PmB and BPI(85-102) were included as control compounds for comparative purposes. The microprecipitates formed were visualized by Coommassie brilliant blue staining. […] Since the amount of precipitate formed is a function of valency, the peptides of the invention appear to be capable of a high degree of intermolecular binding of LPS molecules via the Lipid A moieties. […] The degree of precipitation of endotoxin by the synthetic peptides according to the invention was determined by measurement of the optical density of insoluble complexes formed at 340 nm (FIG. 2). […] Binding characteristics of biotinylated derivatives of the synthetic peptides BP1, BP2, BP2.1 and the control peptide BPI(85-102) were determined on ELISA microtiter plates coated with E. coli D31m4 Lipid A. Specific binding of the biotinylated peptides to the immobilized Lipid A was determined by development with Streptavidin-HRP and 3, 5, 3′, 5′ tetra-methylbenzidine (TMB) substrate and expressed as the corrected optical density at 450 nm. […]

No end group written: not given here.

As to “GKWKLFKKAFKKFLKILAC-OH [BP2, Gly-Lys-Trp-Lys-Leu-Phe-Lys-Lys-Ala-Phe-Lys-Lys-Phe-Leu-Lys-Ile-Leu-Ala-Cys]”, in the data set with TNF-α production (2.5 to 20 μg/ml added 10 min before 1 ng/ml LPS), the “endotoxin neutralization (TNF-α production)” value was “dose-dependent inhibition”. Also, the “inhibition of cytokine (TNF-α) production” value with TNF-α production (peptide 20 μg/ml added 10 min before 1 ng/ml LPS) worked out at 57%. Moreover, in data set [1], the tolerability entry was “well tolerated with no adverse effects”. In addition, in data set [2] (peptide 40 ng/ml), the “degree of binding versus complexity of immobilized LPS” value was “decreases with increasing complexity of immobilized LPS”. The “effect of plasma on binding to endotoxins” value in data set [2] (up to 5% (v/v) heat-treated, clarified plasma) is given as “no significant effect”. In data set [3], the “inhibition of binding of peptide to immobilized Lipid A” value worked out at 65%.

In the case of “Ile-Lys-Ile-Ser-Gly-Lys-Trp-Lys-Ala-Gin-Lys-Arg-Phe-Leu-Lys-Met-Ser-Gly-(Cys) (IKISGKWKAQKRFLKMSGC; listed as Homo sapiens) [BPI(85-102), reference compound]”, the “precipitation of 0111 LPS” value in data set [4] is “considerably less”.

For the origin of these results see patent publication US6624140B1, “Synthetic peptides with antimicrobial and endotoxin neutralizing properties for management of the sepsis syndrome” (Academisch Ziekenhuis Bij de Universiteit van Amsterdam …, priority 1997, dated 2003).
